{"source": "paper PMC9505538", "about": "“P-Glycoprotein (MDR1/ABCB1) Restricts Brain Accumulation of the Novel EGFR Inhibitor EAI045 and Oral Elacridar Coadministration Enhances Its Brain Accumulation and Oral Exposure” (Pharmaceuticals, 2022)", "key": {"[1]": {"conditions": "mouse, in vivo", "from_the_text": "(§1) Mice (Mus musculus) were bred in the Netherlands Cancer Institute and housed and handled according to institutional guidelines complying with Dutch and EU legislation. Animals used were WT, Abcb1a/1b^-/- [39], Abcg2^-/- [40], Abcb1a/1b;Abcg2^-/- [41], Cyp3a^-/- [42], and Oatp1a/1b^-/- [43] mice of a >99% FVB/N strain background. Homozygous CYP3A4 humanized transgenic mice (Cyp3aXAV) were generated by cross-breeding of transgenic mice with stable human CYP3A4 expression in the liver or intestine, respectively, in a Cyp3a^-/- background. Proper functionality of the knockout and transgenic strains was monitored by regular testing with a variety of drug substrates. All the mice used were between 10 and 15 weeks of age. Animals were kept in a temperature-controlled environment with a 12 h light/12 h dark cycle and received a standard diet (Transbreed, SDS Diets, Technilab-BMI, The Netherlands) and acidified water ad libitum. Depending on the type of experiment, 5 or 6 mice were tested in each experimental group. All experimental animal protocols, including power calculations, were ethically assessed and designed under the nationally approved DEC/CCD project AVD301002016595 (approval date, 10 August 2016) and evaluated and approved by the institutional animal care and use committee (IACUC) of the Netherlands Cancer Institute.\nEAI045 was dissolved in dimethyl sulfoxide (DMSO) at a concentration of […], and then diluted with a mixture of polysorbate 80/ethanol (1:1, v/v), and further diluted with 5% (w/v) glucose in water to yield a concentration of 2 mg/mL. Final concentrations for DMSO, polysorbate 80, ethanol, and glucose in the dosing solution were 5%, 2.5%, 2.5%, and 4.5% (v/v/v/w), respectively. Elacridar hydrochloride was dissolved in DMSO at a concentration of 53 mg/mL, then diluted with a mixture of polysorbate 80, ethanol, and water [20:13:67, (v/v/v)] to yield a concentration of 5 mg/mL elacridar. The final oral dose of elacridar was 50 mg/kg body weight. All dosing solutions were prepared freshly on the day of experiment.\nTo minimize variation in absorption, mice were fasted for about 3 h before EAI045 was administered by gavage into the stomach (n = 5–6), using a blunt-ended needle. EAI045 was administered orally at dose of 20 mg/kg. Elacridar was administered orally at a dose of 50 mg/kg, 3 h prior to oral EAI045 administration. For the 24- or 4-h experiments, tail vein blood samplings were performed at 5 min, 30 min, 1, 2, 4, and 8 h, or 5 min, 15 min, 30 min, 1, and 2 h time points after oral administration of EAI045, respectively, using microvettes containing heparin. For the 30 min experiments, blood samplings were performed at 5, 10, and 20 min from the tail vein. At the last time point (24 h, 4 h, or 30 min), mice were anesthetized with isoflurane and blood was collected by cardiac puncture. Then, mice were sacrificed by cervical dislocation and brain, liver, spleen, kidneys, lung, small intestine with content (SIWC), and testis were rapidly removed and weighed. Tissues were homogenized on ice in appropriate volumes of 2% (w/v) BSA. Blood samples were centrifuged at 9000× g for 6 min at 4 °C immediately after collection. All samples were stored at −30 °C until analysis."}, "[2]": {"conditions": "mouse, in vivo", "experimental": "A 4-h pilot experiment was performed in female wild-type (WT) and double-knockout Abcb1a/1b;Abcg2^-/- mice, with oral administration of 20 mg/kg EAI045. As shown in Supplemental Figure S2A,B, EAI045 was very rapidly absorbed in all strains, with an apparent tmax around 5 min.\nWe further measured the brain, liver, kidney, spleen, lung, and small intestine with content (SIWC) concentrations of EAI045 4 h after oral administration. Whereas at t = 4 h the plasma concentrations between the two strains were similar, the brain concentrations and brain-to-plasma ratios in Abcb1a/1b;Abcg2^-/- mice were dramatically higher than those in WT mice (25-fold and 12-fold, respectively, Supplemental Figure S3A,B). […] In contrast, the small intestine with content (SIWC) percentage of dose (SIWC%) and SIWC%-to-plasma ratio was reduced in Abcb1a/1b;Abcg2^-/- mice (Supplemental Figure S3K,L).\nas §1\nEAI045 was dissolved in dimethyl sulfoxide (DMSO) at a concentration of 4 mg/mL, and then diluted with a mixture of polysorbate 80/ethanol (1:1, v/v), and further diluted with 5% (w/v) glucose in water to yield a concentration of 2 mg/mL. Final concentrations for DMSO, polysorbate 80, ethanol, and glucose in the dosing solution were 5%, 2.5%, 2.5%, and 4.5% (v/v/v/w), respectively. […]", "remark": "listed apart in the source"}}}
{"compound": "O=C(Nc1nccs1)C(c1cc(F)ccc1O)N1Cc2ccccc2C1=O", "note": "(stereo not drawn) [EAI045]", "values": [{"measurement": "kidney-to-plasma ratio, fold change", "setting": "[1]", "value": 1.6, "unit": "fold"}, {"measurement": "systemic exposure of EAI045", "setting": "[1]; po, 20 mg/kg", "value": "not changed"}, {"measurement": "percentage of dose left in intestinal lumen (SIWC%)", "setting": "[2]", "value": 1.7, "unit": "%"}, {"measurement": "apparent tmax", "setting": "[2]; po, 20 mg/kg", "value": "around 5 min"}, {"measurement": "plasma exposure over 4 h (AUC0–4h)", "setting": "[2]; po, 20 mg/kg", "value": "not meaningfully altered"}, {"measurement": "brain-to-plasma ratio", "setting": "[2]; po, 20 mg/kg, 4 h", "value": 0.15}]}
